The subject of the test is corn. Put plainly: Foliar application field trial USA (FA12NARS4CUJX1): green foliage and yield in corn. It is filed as in vivo. As to conditions: for Greening Effect (%): 100 EC, green foliage of corn at EC 79, untreated control 43; for Grain Yield (dt/ha): untreated control 39.5. The procedure:
The field trial FA12NARS4CUJX1 was conducted in the USA (IA, 50046 Cambridge) in spring 2012.
The crop was planted on April 2012. Fertilization and herbicide applications were carried out according to the local agricultural practice.
The trial was conducted with 4 replicates. Plot size was 80 m^2 and there were four replicates.
Compound A5 was applied as a 100 EC formulation with rates of 20 and 50 g a.i./ha twice in the growing season at BBCH-growth stages EC 15 and 61.
In this trial there was no significant leaf disease severity assessed (Kabatiella zeae pest severity below 5%). It can be considered as almost disease free.
The trial was harvested on September 2012.

Setting [1] is: 20 g a.i./ha twice (EC 15 and 61).
[2] abbreviates: 50 g a.i./ha twice (EC 15 and 61).

With `CC(C)c1ccc(Cl)cc1CN(C(=O)c1c(C(F)F)nn(C)c1F)C1CC1` [Compound A5, N-(5-chloro-2-isopropylbenzyl)-N-cyclopropyl-3-(difluoromethyl)-5-fluoro-1-methyl-1H-pyrazole-4-carboxamide], under setting [1], the “Grain Yield (% of Untreated Control)” value turned out to be 123%, the “Greening Effect (%)” value is on record as 59% and the Grain Yield (dt/ha) stood at 48.5 dt/ha. Also, under setting [2], the “Grain Yield (% of Untreated Control)” value turned out to be 131%, the “Greening Effect (%)” value amounted to 63% and the Grain Yield (dt/ha) turned out to be 51.8 dt/ha. Also, the “effect on maintenance of green leaves in corn (in words)” value (foliar sprays) is listed as “clearly has an effect on the maintenance of the green leaves shortly before harvest”.
